Where “and” joins values, the source holds several entries; their conditions need not be identical. Identical values can stand only once.
Key:
[1] = Pharmacokinetic study in cynomolgus monkeys after oral (nasogastric) gavage, sublingual and intravenous administration; format: in vivo; settings: monkey
Method: A pharmacokinetic study was done in cynomolgus monkeys following single oral (nasogastric) gavage, sublingual, and intravenous administration. […] Calibration curves, blanks, and analytical QCs were prepared in monkey plasma (K2EDTA). The extracts were evaporated to dryness, reconstituted, and then analyzed by LC-MS/MS. The calibration range was 0.250-250 ng/mL for both analytes.
If the criteria for either the calibration curve or the analytical QCs were not met, the analytical run was rejected. […] No deviations were found during the bioanalytical phase of the study conducted by Origin. Calibration curves were derived from the individual analyte to internal standard peak area ratios using the least squared regression of the ratio versus the nominal concentration of the calibration standard, prepared in duplicate. The regression was then used to back-calculate the concentration of each calibration standard, QC sample and study sample. […] Analyst® Software Version 1.6.3 (Applied Biosystems-MDS Sciex), operated with Windows® (Microsoft), was used for instrument control, data acquisition, and peak integrations. Peak area ratios, standard curve regressions, and sample concentration/accuracy values were calculated with Analyst® Software Version 1.6.3. Other results (e.g., mean statistics) were calculated with Excel® (Microsoft).
There was no apparent sex difference for the second formulation. […] A fourth formulation comprising the composition B listed in Table 54 was also administered in monheys.

[2] = Oral delivery of unformulated Bumetanide Dibenzylamide in Beagle dogs, pharmacokinetics and bioavailability; format: in vivo

- concentration at 1 h ([1]; cynomolgus monkey, plasma, other: sublingual, 5 mg/kg, Plasma Bumetanide Dibenzylamide concentration, SL, dose column 5 mg/kg (title 30 mg/kg), Fourth Formulation (Form 2), 1.0 h, individual animals): 0 ng/mL
- concentration at 0.08 h ([1]; cynomolgus, cynomolgus monkey, plasma, intravenous, 2 mg/kg, Plasma Bumetanide Dibenzylamide concentration, Median, dose column 2 mg/kg (title 30 mg/kg), Third Formulation (Form 4), 0.08 h, N=4): 1370 ng/mL
- concentration at 0.5 h ([1]; cynomolgus, cynomolgus monkey, plasma, intravenous, 2 mg/kg, Plasma Bumetanide Dibenzylamide concentration, Median, dose column 2 mg/kg (title 30 mg/kg), Third Formulation (Form 4), 0.50 h, N=4): 672 ng/mL
- concentration at 1 h ([1]; cynomolgus, cynomolgus monkey, plasma, intravenous, 2 mg/kg, Plasma Bumetanide Dibenzylamide concentration, Median, dose column 2 mg/kg (title 30 mg/kg), Third Formulation (Form 4), 1.00 h, N=4): 504 ng/mL
- concentration at 2 h ([1]; cynomolgus, cynomolgus monkey, plasma, intravenous, 2 mg/kg, Plasma Bumetanide Dibenzylamide concentration, Median, dose column 2 mg/kg (title 30 mg/kg), Third Formulation (Form 4), 2.00 h, N=4): 297 ng/mL
- concentration at 4 h ([1]; cynomolgus, cynomolgus monkey, plasma, intravenous, 2 mg/kg, Plasma Bumetanide Dibenzylamide concentration, Median, dose column 2 mg/kg (title 30 mg/kg), Third Formulation (Form 4), 4.00 h, N=4): 109 ng/mL
- concentration at 8 h ([1]; cynomolgus, cynomolgus monkey, plasma, intravenous, 2 mg/kg, Plasma Bumetanide Dibenzylamide concentration, Median, dose column 2 mg/kg (title 30 mg/kg), Third Formulation (Form 4), 8.00 h, N=4): 27.2 ng/mL
- concentration at 24 h ([1]; cynomolgus, cynomolgus monkey, plasma, intravenous, 2 mg/kg, Plasma Bumetanide Dibenzylamide concentration, Median, dose column 2 mg/kg (title 30 mg/kg), Third Formulation (Form 4), 24.00 h, N=4): 2.62 ng/mL
- concentration at 32 h ([1]; cynomolgus, cynomolgus monkey, plasma, intravenous, 2 mg/kg, Plasma Bumetanide Dibenzylamide concentration, Median, dose column 2 mg/kg (title 30 mg/kg), Third Formulation (Form 4), 32.00 h, N=4): 0.917 ng/mL
- Plasma Bumetanide Dibenzylamide concentration ([1]; IV, dose column 2 mg/kg (title 30 mg/kg), Third Formulation (Form 4), 0.08 h, individual animals): 1430 ng/mL and 1160 ng/mL and 1310 ng/mL
- Plasma Bumetanide Dibenzylamide concentration ([1]; IV, dose column 2 mg/kg (title 30 mg/kg), Third Formulation (Form 4), 0.50 h, individual animals): 757 ng/mL and 555 ng/mL and 626 ng/mL
- Plasma Bumetanide Dibenzylamide concentration ([1]; IV, dose column 2 mg/kg (title 30 mg/kg), Third Formulation (Form 4), 1.00 h, individual animals): 536 ng/mL and 472 ng/mL and 385 ng/mL
- Plasma Bumetanide Dibenzylamide concentration ([1]; IV, dose column 2 mg/kg (title 30 mg/kg), Third Formulation (Form 4), 2.00 h, individual animals): 316 ng/mL and 278 ng/mL and 214 ng/mL
- Plasma Bumetanide Dibenzylamide concentration ([1]; IV, dose column 2 mg/kg (title 30 mg/kg), Third Formulation (Form 4), 4.00 h, individual animals): 87.8 ng/mL and 129 ng/mL and 89.3 ng/mL
- Plasma Bumetanide Dibenzylamide concentration ([1]; NG 30 mg/kg, First Formulation (Form 1), 0.00 h, individual animals, female monkeys): 0.00 ng/mL
- Plasma Bumetanide Dibenzylamide concentration ([1]; NG 30 mg/kg, First Formulation (Form 1), 0.00 h, individual animals, male monkeys): 0.00 ng/mL
- Plasma Bumetanide Dibenzylamide concentration ([1]; NG 30 mg/kg, First Formulation (Form 1), 0.25 h, individual animals, female monkeys): 0.992 ng/mL and 0.398 ng/mL
- Plasma Bumetanide Dibenzylamide concentration ([1]; NG 30 mg/kg, First Formulation (Form 1), 0.25 h, individual animals, male monkeys): 0.932 ng/mL and 14.9 ng/mL
- Plasma Bumetanide Dibenzylamide concentration ([1]; NG 30 mg/kg, First Formulation (Form 1), 0.50 h, individual animals, female monkeys): 1.66 ng/mL and 1.18 ng/mL
- Plasma Bumetanide Dibenzylamide concentration ([1]; NG 30 mg/kg, First Formulation (Form 1), 0.50 h, individual animals, male monkeys): 3.97 ng/mL and 16.8 ng/mL
- Plasma Bumetanide Dibenzylamide concentration ([1]; NG 30 mg/kg, First Formulation (Form 1), 1.00 h, individual animals, female monkeys): 8.08 ng/mL and 3.01 ng/mL
- Plasma Bumetanide Dibenzylamide concentration ([1]; NG 30 mg/kg, First Formulation (Form 1), 1.00 h, individual animals, male monkeys): 12.1 ng/mL and 29.7 ng/mL
- Plasma Bumetanide Dibenzylamide concentration ([1]; NG 30 mg/kg, First Formulation (Form 1), 2.00 h, individual animals, female monkeys): 11.1 ng/mL and 8.35 ng/mL
- Plasma Bumetanide Dibenzylamide concentration ([1]; NG 30 mg/kg, First Formulation (Form 1), 2.00 h, individual animals, male monkeys): 157 ng/mL and 74.0 ng/mL
- Plasma Bumetanide Dibenzylamide concentration ([1]; NG 30 mg/kg, First Formulation (Form 1), 4.00 h, individual animals, female monkeys): 9.83 ng/mL and 23.8 ng/mL
- Plasma Bumetanide Dibenzylamide concentration ([1]; NG 30 mg/kg, First Formulation (Form 1), 4.00 h, individual animals, male monkeys): 182 ng/mL and 51.4 ng/mL
- Plasma Bumetanide Dibenzylamide concentration ([1]; NG 30 mg/kg, First Formulation (Form 1), 8.00 h, individual animals, female monkeys): 17.5 ng/mL and 17.0 ng/mL
- Plasma Bumetanide Dibenzylamide concentration ([1]; NG 30 mg/kg, First Formulation (Form 1), 8.00 h, individual animals, male monkeys): 99.9 ng/mL and 45.1 ng/mL
- Plasma Bumetanide Dibenzylamide concentration ([1]; NG 30 mg/kg, First Formulation (Form 1), 24.00 h, individual animals, female monkeys): 3.28 ng/mL and 2.02 ng/mL
- Plasma Bumetanide Dibenzylamide concentration ([1]; NG 30 mg/kg, First Formulation (Form 1), 24.00 h, individual animals, male monkeys): 21.6 ng/mL and 7.47 ng/mL
- Plasma Bumetanide Dibenzylamide concentration ([1]; NG 30 mg/kg, First Formulation (Form 1), 32.00 h, individual animals, female monkeys): 0.790 ng/mL and 1.37 ng/mL
- Plasma Bumetanide Dibenzylamide concentration ([1]; NG 30 mg/kg, First Formulation (Form 1), 32.00 h, individual animals, male monkeys): 9.75 ng/mL and 6.13 ng/mL
- Plasma Bumetanide Dibenzylamide concentration ([1]; NG 30 mg/kg, Second Formulation (Form 3), 0.00 h, individual animals, female monkeys): 0.00 ng/mL
- Plasma Bumetanide Dibenzylamide concentration ([1]; NG 30 mg/kg, Second Formulation (Form 3), 0.00 h, individual animals, male monkeys): 0.00 ng/mL
- Plasma Bumetanide Dibenzylamide concentration ([1]; NG 30 mg/kg, Second Formulation (Form 3), 0.25 h, individual animals, female monkeys): 0.619 ng/mL and 0.261 ng/mL
- Plasma Bumetanide Dibenzylamide concentration ([1]; NG 30 mg/kg, Second Formulation (Form 3), 0.25 h, individual animals, male monkeys): 0.250 ng/mL and 0.00 ng/mL
- Plasma Bumetanide Dibenzylamide concentration ([1]; NG 30 mg/kg, Second Formulation (Form 3), 0.50 h, individual animals, female monkeys): 4.98 ng/mL and 1.71 ng/mL
- Plasma Bumetanide Dibenzylamide concentration ([1]; NG 30 mg/kg, Second Formulation (Form 3), 0.50 h, individual animals, male monkeys): 1.55 ng/mL and 3.16 ng/mL
- Plasma Bumetanide Dibenzylamide concentration ([1]; NG 30 mg/kg, Second Formulation (Form 3), 1.00 h, individual animals, female monkeys): 20.2 ng/mL and 7.09 ng/mL
- Plasma Bumetanide Dibenzylamide concentration ([1]; NG 30 mg/kg, Second Formulation (Form 3), 1.00 h, individual animals, male monkeys): 7.56 ng/mL and 11.3 ng/mL
- Plasma Bumetanide Dibenzylamide concentration ([1]; NG 30 mg/kg, Second Formulation (Form 3), 2.00 h, individual animals, female monkeys): 79.3 ng/mL and 37.8 ng/mL
- Plasma Bumetanide Dibenzylamide concentration ([1]; NG 30 mg/kg, Second Formulation (Form 3), 2.00 h, individual animals, male monkeys): 16.8 ng/mL and 82.5 ng/mL
- Plasma Bumetanide Dibenzylamide concentration ([1]; NG 30 mg/kg, Second Formulation (Form 3), 4.00 h, individual animals, female monkeys): 140 ng/mL and 247 ng/mL
- Plasma Bumetanide Dibenzylamide concentration ([1]; NG 30 mg/kg, Second Formulation (Form 3), 4.00 h, individual animals, male monkeys): 126 ng/mL and 410 ng/mL
- Plasma Bumetanide Dibenzylamide concentration ([1]; NG 30 mg/kg, Second Formulation (Form 3), 8.00 h, individual animals, female monkeys): 457 ng/mL and 674 ng/mL
- Plasma Bumetanide Dibenzylamide concentration ([1]; NG 30 mg/kg, Second Formulation (Form 3), 8.00 h, individual animals, male monkeys): 785 ng/mL
- Plasma Bumetanide Dibenzylamide concentration ([1]; NG 30 mg/kg, Second Formulation (Form 3), 24.00 h, individual animals, female monkeys): 9.30 ng/mL and 10.7 ng/mL
- Plasma Bumetanide Dibenzylamide concentration ([1]; NG 30 mg/kg, Second Formulation (Form 3), 24.00 h, individual animals, male monkeys): 26.4 ng/mL and 8.13 ng/mL
- Plasma Bumetanide Dibenzylamide concentration ([1]; NG 30 mg/kg, Second Formulation (Form 3), 32.00 h, individual animals, female monkeys): 1.63 ng/mL and 1.62 ng/mL
- Plasma Bumetanide Dibenzylamide concentration ([1]; NG 30 mg/kg, Second Formulation (Form 3), 32.00 h, individual animals, male monkeys): 6.41 ng/mL and 2.08 ng/mL
- Plasma Bumetanide Dibenzylamide concentration ([1]; SL, dose column 5 mg/kg (title 30 mg/kg), Fourth Formulation (Form 2), 4.0 h, individual animals): 0.00 ng/mL
- Plasma Bumetanide Dibenzylamide concentration ([1]; SL, dose column 5 mg/kg (title 30 mg/kg), Fourth Formulation (Form 2), 8.0 h, individual animals): 0.380 ng/mL
- Plasma Bumetanide Dibenzylamide concentration ([1]; SL, dose column 5 mg/kg (title 30 mg/kg), Fourth Formulation (Form 2), 24.0 h, individual animals): 0.363 ng/mL
- Plasma Bumetanide Dibenzylamide concentration ([1]; SL, dose column 5 mg/kg (title 30 mg/kg), Fourth Formulation (Form 2), 32.0 h, individual animals): 0.00 ng/mL
- bioavailability ([2]; Beagle, dog, in vivo, 30 mg, oral non-formulated, read-out: Absolute Bioavailability): ~5.1%
- concentration at 0.5 h ([2]; Beagle, dog, plasma, oral, 30 mg/kg, Plasma Bumetanide Dibenzylamide concentration, oral non-formulated 30 mg/kg, 0.5 h): 2.99 ng/mL
- concentration at 4 h ([2]; Beagle, dog, plasma, oral, 30 mg/kg, Plasma Bumetanide Dibenzylamide concentration, oral non-formulated 30 mg/kg, 4 h): 149 ng/mL
- concentration at 6 h ([2]; Beagle, dog, plasma, oral, 30 mg/kg, Plasma Bumetanide Dibenzylamide concentration, oral non-formulated 30 mg/kg, 6 h): 151 ng/mL
- concentration at 8 h ([2]; Beagle, dog, plasma, oral, 30 mg/kg, Plasma Bumetanide Dibenzylamide concentration, oral non-formulated 30 mg/kg, 8 h): 101 ng/mL
- concentration at 12 h ([2]; Beagle, dog, plasma, oral, 30 mg/kg, Plasma Bumetanide Dibenzylamide concentration, oral non-formulated 30 mg/kg, 12 h): 40.1 ng/mL
- Plasma Bumetanide Dibenzylamide concentration ([2]; oral non-formulated 30 mg/kg, 0.5 h): 2.17 ng/mL
- Plasma Bumetanide Dibenzylamide concentration ([2]; oral non-formulated 30 mg/kg, 0.5 h, mean): 2.58 ng/mL
- Plasma Bumetanide Dibenzylamide concentration ([2]; oral non-formulated 30 mg/kg, 4 h): 136 ng/mL
- Plasma Bumetanide Dibenzylamide concentration ([2]; oral non-formulated 30 mg/kg, 4 h, mean): 143 ng/mL
- Plasma Bumetanide Dibenzylamide concentration ([2]; oral non-formulated 30 mg/kg, 6 h): 153 ng/mL
- Plasma Bumetanide Dibenzylamide concentration ([2]; oral non-formulated 30 mg/kg, 6 h, mean): 152 ng/mL
- Plasma Bumetanide Dibenzylamide concentration ([2]; oral non-formulated 30 mg/kg, 8 h): 132 ng/mL
- Plasma Bumetanide Dibenzylamide concentration ([2]; oral non-formulated 30 mg/kg, 8 h, mean): 117 ng/mL
- Plasma Bumetanide Dibenzylamide concentration ([2]; oral non-formulated 30 mg/kg, 12 h): 50.5 ng/mL
- Plasma Bumetanide Dibenzylamide concentration ([2]; oral non-formulated 30 mg/kg, 12 h, mean): 45.3 ng/mL
Structure (SMILES): CCCCNc1cc(C(=O)N(Cc2ccccc2)Cc2ccccc2)cc(S(N)(=O)=O)c1Oc1ccccc1 [Bumetanide Dibenzylamide, N, N-dibenzyl 3-aminosulfonyl-5-butylamino-4-phenoxybenzamide]
- Plasma Bumetanide Dibenzylamide concentration ([1]; IV, dose column 2 mg/kg (title 30 mg/kg), Third Formulation (Form 4), 8.00 h, individual animals): 51.4 ng/mL and 26.6 ng/mL and 27.7 ng/mL and 17.2 ng/mL
- Plasma Bumetanide Dibenzylamide concentration ([1]; IV, dose column 2 mg/kg (title 30 mg/kg), Third Formulation (Form 4), 24.00 h, individual animals): 3.95 ng/mL and 0.942 ng/mL and 8.10 ng/mL and 1.28 ng/mL
- Plasma Bumetanide Dibenzylamide concentration ([1]; IV, dose column 2 mg/kg (title 30 mg/kg), Third Formulation (Form 4), 32.00 h, individual animals): 1.47 ng/mL and 0.303 ng/mL and 3.80 ng/mL and 0.363 ng/mL
